Measurements reported in publication PMC9412104, “Biochemical and Structural Insights on the Poplar Tau Glutathione Transferase GSTU19 and 20 Paralogs Binding Flavonoids” (Frontiers in Molecular Biosciences, 2022).
Where two headings read alike, the source gives them in different places. Blank lines part the entries; values can stand above or below the compound they belong to.

How the values were obtained:
[1] = biological target: T1, PtGSTU19 (Populus trichocarpa, UniProt B9HKX9); assay: GSH-conjugation activity toward model substrates; conditions: PtGSTU19
T1 sequence (B9HKX9 entry or part of it): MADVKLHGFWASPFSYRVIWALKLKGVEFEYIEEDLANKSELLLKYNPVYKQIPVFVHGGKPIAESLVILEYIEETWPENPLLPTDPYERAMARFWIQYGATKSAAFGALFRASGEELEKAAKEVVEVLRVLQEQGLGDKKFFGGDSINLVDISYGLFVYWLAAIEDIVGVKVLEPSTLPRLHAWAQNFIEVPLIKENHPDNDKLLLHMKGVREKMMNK

[2] = biological target: T1, PtGSTU19; assay: Competition (inhibition) assay of GSH-conjugation with PITC as substrate; format: biochemical
Method: (§2) The measured velocities were corrected by subtracting the rate of the spontaneous nonenzymatic reaction, and three independent experiments were performed at each substrate concentration. The kinetic parameters (k cat and apparent K m) and the inhibition constants (K i) were, respectively, obtained by fitting the data to the nonlinear regression Michaelis–Menten model (kinetic assays) and to the mixed inhibition model (inhibition assays) in GraphPad Prism 8 software ([Copeland, 2013]).

[3] = biological target: T2, PtGSTU20 (Populus trichocarpa, UniProt D2X9R3); assay: as above; format: biochemical
T2 sequence (D2X9R3 entry or part of it): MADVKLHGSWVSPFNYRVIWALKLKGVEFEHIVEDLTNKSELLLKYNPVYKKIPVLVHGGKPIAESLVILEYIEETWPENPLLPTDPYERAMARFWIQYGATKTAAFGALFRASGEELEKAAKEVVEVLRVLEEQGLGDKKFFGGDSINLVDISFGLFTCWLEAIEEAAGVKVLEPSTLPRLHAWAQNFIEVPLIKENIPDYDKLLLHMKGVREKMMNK
Method: as §2

[4] = biological target: T1, PtGSTU19; assay: Thermal shift assay (SYPRO orange); format: binding
Method: (§1) Assays were performed in a mixture (final volume of 25 µL) containing 30 mM Tris-HCl pH 8.0, 100 µM of chemical compounds (diluted in 8% DMSO) originating from a chemical library (Supplementary Tables S2, S3), 20 µM of PtGSTU19 or 20, and 5X SYPRO orange. […] The denaturation temperature, which corresponds to the temperature at which 50% of the total fluorescence is measured, was determined by the nonlinear regression Boltzmann sigmoidal model in GraphPad Prism 8 software for data obtained in the presence of potential ligands. This temperature was compared with a reference assay in which organic compounds were replaced by an equivalent DMSO concentration.

[5] = biological target: T2, PtGSTU20; assay: Thermal shift assay (SYPRO orange); format: binding
Method: as §1

[6] = biological target: T1, PtGSTU19; assay: Peroxidase activity, NADPH coupled spectrophotometric assay; format: biochemical; conditions: enzyme concentration increased up to 10 µM
Method: (§3) Peroxidase activity toward hydroperoxides was measured using an NADPH coupled spectrophotometric assay ([Pégeot et al., 2014]).
as §2

[7] = biological target: T2, PtGSTU20; assay: as above; format: biochemical; conditions: enzyme concentration increased up to 10 µM
Method: as §3, §2

[8] = biological target: PtGSTU19Y160F (Populus trichocarpa, UniProt B9HKX9, Y160F); assay: GSH-conjugation activity toward model substrates, variant; format: biochemical
Sequence of PtGSTU19Y160F (B9HKX9 2-219 Y160F): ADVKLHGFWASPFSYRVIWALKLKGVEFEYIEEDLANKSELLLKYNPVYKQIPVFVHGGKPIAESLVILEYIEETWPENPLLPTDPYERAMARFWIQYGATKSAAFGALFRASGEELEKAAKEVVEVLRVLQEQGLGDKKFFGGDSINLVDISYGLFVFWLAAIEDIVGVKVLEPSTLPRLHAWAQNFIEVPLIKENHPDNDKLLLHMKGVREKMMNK
Method: as §3
The measured velocities were corrected by subtracting the rate of the spontaneous nonenzymatic reaction, and three independent experiments were performed at each substrate concentration.

[9] = read-out: ΔTd (denaturation temperature difference), PtGSTU20 20 µM, compound 100 µM, vs DMSO reference, flavonoid set (Table S3, Figure 4)
[10] = PtGSTU20 20 µM, compound 100 µM, vs DMSO reference, flavonoid set (Table S3, Figure 4), read-out: ΔTd (denaturation temperature difference)
[11] = read-out: ΔTd (denaturation temperature difference)
[12] = PtGSTU19 20 µM, compound 100 µM, vs DMSO reference, flavonoid set (Table S3, Figure 4), read-out: ΔTd (denaturation temperature difference)

Structure (SMILES): CCCCCC(O)C=CC=O (centres unmarked) [HNE, 4-hydroxy-2-nonenal]
Catalytic efficiency [1]: 2000 M⁻¹ s⁻¹

Structure (SMILES): O=c1cc(-c2ccc(O)cc2)oc2cc(O)cc(O)c12 [apigenin]
ΔTm at 100 µM [5, 11]: 1.41 °C

Structure (SMILES): CC(C)(C)OO [t-BOOH, tert-butyl hydroperoxide]
Peroxidase activity (active on the peroxide) [6]: not
Peroxidase activity (active on the peroxide) [7]: not

Structure (SMILES): N[C@@H](CCC(=O)N[C@@H](CS)C(=O)NCC(=O)O)C(=O)O [GSH, glutathione]
ΔTd (denaturation temperature difference) ([4]; PtGSTU19 apo form 20 µM, compound 100 µM, vs DMSO reference, first chemical library screen (Table S2, Figure S9)): little or no change
ΔTd (denaturation temperature difference) ([5]; PtGSTU20 apo form 20 µM, compound 100 µM, vs DMSO reference, first chemical library screen (Table S2, Figure S9)): little or no change
apparent affinity for glutathione, reduced by a factor [8]: 4
variation of apparent affinity for glutathione [8]: no variation

Structure (SMILES): O=c1cc(-c2ccccc2)oc2cc(O)cc(O)c12 [Chrysin]
ΔTm at 100 µM [4, 11]: -0.05 ± 0.07 °C
ΔTm at 100 µM [5, 11]: 2.07 °C

Next, values leading:

Ki [2]: 72.9 ± 5.3 µM
Ki [3]: 16 ± 0.9 µM
ΔTm at 100 µM ([4]; read-out: ΔTd (denaturation temperature difference), PtGSTU19 20 µM, compound 100 µM, vs DMSO reference, flavonoid set (Table S3, Figure 4)): 0.37 ± 0.16 °C
ΔTm at 100 µM ([4]; read-out: ΔTd (denaturation temperature difference), PtGSTU19 apo form 20 µM, compound 100 µM, vs DMSO reference, first chemical library screen (Table S2, Figure S9)): > 4 °C
ΔTm at 100 µM [5, 9]: 4.36 °C
ΔTm at 100 µM ([5]; read-out: ΔTd (denaturation temperature difference), PtGSTU20 apo form 20 µM, compound 100 µM, vs DMSO reference, first chemical library screen (Table S2, Figure S9)): > 4 °C
Structure (SMILES): O=c1c(O)c(-c2ccc(O)cc2O)oc2cc(O)cc(O)c12 [Morin]

ΔTm at 100 µM [5, 10]: 2.32 °C
Structure (SMILES): O=C(/C=C/c1ccc(O)c(O)c1)c1ccc(O)cc1O [butein]

Ki ([2]; read-out: K i): 157 ± 28.7 µM
Ki ([3]; read-out: K i): 43.8 ± 0.6 µM
ΔTm at 100 µM [4, 12]: 1.59 ± 0.29 °C
ΔTd (denaturation temperature difference) ([5]; PtGSTU20 20 µM, compound 100 µM, vs DMSO reference, flavonoid set (Table S3, Figure 4), 100 µM): 5.89 ± 0.64 °C
ΔTm at 100 µM [5, 10]: 7.42 °C
Structure (SMILES): O=c1c(O)c(-c2ccccc2)oc2cc(O)cc(O)c12 [Galangin]

Ki ([2]; read-out: K i): 152 ± 13.5 µM
Ki ([3]; read-out: K i): 61.2 ± 10.5 µM
ΔTm at 100 µM [4, 12]: -0.01 ± 0.12 °C
ΔTm at 100 µM [5, 10]: 1.68 °C
Structure (SMILES): O=C1C[C@@H](c2ccccc2)Oc2cc(O)cc(O)c21 [Pinocembrin]

ΔTm at 100 µM [5, 9]: 5.17 °C
Structure (SMILES): COc1c(O)cc(O)c2c(=O)cc(-c3ccccc3)oc12 [wogonin]

Peroxidase activity (active on the peroxide) [6]: not
Peroxidase activity (active on the peroxide) [7]: not
Structure (SMILES): OO [H2O2, hydrogen peroxide]
